Several values for one entry are separate records, joined by “and”; a condition that tells them apart may be missing. Equal entries are not always repeated.

The results in this text go back to patent publication US7220784B2, “Substituted stilbenes and their reactions” (priority 2000, dated 2007).

For one data set, the system named is A2780. Briefly: Cytotoxicity/growth inhibition assay (MTT), A2780. It counts as cell-based. The conditions noted are these: read-out: A2780 IC50. The procedure, abridged:
(§1)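 MTT cytotoxicity/growth-inhibition assay in human cell lines including A2780, A2780/ADR, H460 and HUVEC.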

The next data set relates to HUVEC. Briefly: Growth inhibition studies using HUVEC. It counts as cell-based, human. The procedure, abridged: as §1
A short description of the next data set: Maximum tolerated dose. Particulars: mouse, in vivo; mice. From the text: The in vitro studies reported in Table 11 illustrate the structure requirements necessary for biological activity. Modifications of the A ring have shown that the methoxy groups can be replaced by alkoxy or alkyl (28,31a,32a) whilst retaining their ability to inhibit assembly of isolated tubulin. Similarly, molecules with alkyl substituents on the ethene bridge (19,20,46) retain activity both as inhibitors of tubulin assembly and are growth inhibitory in vitro. The pharmacophore consists of a stilbene in a cis configuration with a small alkyl or O-alkyl substituent at the 4-position of the B ring. […] These agents show good activity in the shape-change (permeability) assay. This test is used as an in vitro assay of vascular damage. […] 97–64H was given at either ⅔ of the maximum tolerated dose (MTD=200 mg/kg) or at ¾ of the MTD to mice bearing liver metastatic T50:80 tumours. Tumours were removed and examined for evidence of vascular damage at 2 hr and 4 hr following drug administration. Similarly a dose equivalent to ¾ of the MTD was administered and the tumours examined 24 hr and 48 hr following administration of drug. […] These effects are seen within 2 hours.

In data set [1] the test system is H460 human lung xenograft. Briefly: Tumour damage in H460 human lung xenograft grown subcutaneously. Particulars: 0.75×MTD, i.p., twenty four hours following injection. It counts as in vivo. The procedure: The effect of compounds 97–64H and 97–96 (quinone compound) was tested on H460 human lung xenograft grown subcutaneously by injecting equitoxic doses of the compounds (0.75×MTD).

Data set [2] deals with colchicine binding site on tubulin. Nature of the data set: Competition for the colchicine binding site on tubulin.

In the case of `COc1ccc(C=Cc2cc(OC)c(OC)c(OC)c2)cc1F` [Compound 97-64H], the IC50 (as a rule, the concentration that inhibits the measured activity by half) in the data set on A2780 worked out at 3.66 nM; in the data set with HUVEC (Homo sapiens, HUVEC), 2.4 nM. In addition, the “concentration necessary to inhibit the growth of HUVEC cells in vitro” value in the data set with HUVEC came to 0.001 mM. In the data set “Maximum tolerated dose”, the MTD (usually the highest dose tested that stayed within the study's limit of toxicity) is 200 mg/kg. Moreover, the tumour damage entry in data set [1] is “extensive damage to the tumours”. Further, the “Colchicine % Inhibition” value in data set [2] is 79% and 70%.
